Source: BindingDB's records for PubMed 1930610 (Eli Lilly, 1991)
Counter-ions that a name gives are not always drawn.

What was measured:
[1] = biological target: 5-hydroxytryptamine 1D receptor (Bos taurus, UniProt Q8MI13)
[2] = biological target: 5-hydroxytryptamine receptor 1B (Rattus norvegicus, UniProt P28564)
Beta-arrestin-2 = Beta-arrestin-2 (Bos taurus, UniProt P32120)
[3] = biological target: T1, 5-hydroxytryptamine receptor 3A (Rattus norvegicus, UniProt P35563)
T1 sequence (P35563 whole entry): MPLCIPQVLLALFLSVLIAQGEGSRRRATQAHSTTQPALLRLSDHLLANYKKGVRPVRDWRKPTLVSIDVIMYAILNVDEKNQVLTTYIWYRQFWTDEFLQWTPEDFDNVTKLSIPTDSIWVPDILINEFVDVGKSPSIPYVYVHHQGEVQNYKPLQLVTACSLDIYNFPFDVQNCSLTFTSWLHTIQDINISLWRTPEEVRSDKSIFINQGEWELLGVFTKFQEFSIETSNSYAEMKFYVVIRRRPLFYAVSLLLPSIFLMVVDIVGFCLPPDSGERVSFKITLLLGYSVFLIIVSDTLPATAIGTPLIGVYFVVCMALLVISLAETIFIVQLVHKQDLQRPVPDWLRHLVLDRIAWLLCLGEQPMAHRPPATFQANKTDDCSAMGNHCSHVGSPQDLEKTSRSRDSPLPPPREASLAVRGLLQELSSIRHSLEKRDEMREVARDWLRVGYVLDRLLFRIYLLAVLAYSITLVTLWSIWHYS

[4] = biological target: T2, 5-hydroxytryptamine receptor 1A (Rattus norvegicus, UniProt P19327)
T2 sequence (P19327 whole entry): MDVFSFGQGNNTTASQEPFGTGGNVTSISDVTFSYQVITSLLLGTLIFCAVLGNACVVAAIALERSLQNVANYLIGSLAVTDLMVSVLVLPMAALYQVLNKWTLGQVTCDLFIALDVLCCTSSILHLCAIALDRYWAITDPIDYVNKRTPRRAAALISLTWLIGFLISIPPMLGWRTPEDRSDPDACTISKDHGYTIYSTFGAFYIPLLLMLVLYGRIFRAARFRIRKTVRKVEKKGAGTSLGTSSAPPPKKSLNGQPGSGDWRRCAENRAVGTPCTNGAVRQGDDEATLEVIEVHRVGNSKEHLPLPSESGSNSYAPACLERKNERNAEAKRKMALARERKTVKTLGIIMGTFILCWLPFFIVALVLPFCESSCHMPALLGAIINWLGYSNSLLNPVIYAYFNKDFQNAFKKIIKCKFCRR

[5] = biological target: 5-hydroxytryptamine receptor 2A (Rattus norvegicus, UniProt P14842)
Sequence of 5-hydroxytryptamine receptor 2A (P14842 whole entry): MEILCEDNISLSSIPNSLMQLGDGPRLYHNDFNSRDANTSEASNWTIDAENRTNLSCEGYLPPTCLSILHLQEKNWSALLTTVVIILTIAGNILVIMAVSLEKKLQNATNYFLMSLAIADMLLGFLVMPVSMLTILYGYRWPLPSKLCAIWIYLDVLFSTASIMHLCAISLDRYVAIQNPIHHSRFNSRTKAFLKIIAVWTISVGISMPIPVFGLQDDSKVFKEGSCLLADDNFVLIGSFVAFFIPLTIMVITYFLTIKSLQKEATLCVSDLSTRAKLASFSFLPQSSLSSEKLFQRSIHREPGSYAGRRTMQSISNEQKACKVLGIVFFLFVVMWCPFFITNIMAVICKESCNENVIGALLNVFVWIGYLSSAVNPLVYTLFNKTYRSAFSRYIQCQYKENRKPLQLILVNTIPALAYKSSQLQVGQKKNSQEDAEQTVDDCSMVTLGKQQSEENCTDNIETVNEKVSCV

Sequence of Beta-arrestin-2 (P32120 whole entry): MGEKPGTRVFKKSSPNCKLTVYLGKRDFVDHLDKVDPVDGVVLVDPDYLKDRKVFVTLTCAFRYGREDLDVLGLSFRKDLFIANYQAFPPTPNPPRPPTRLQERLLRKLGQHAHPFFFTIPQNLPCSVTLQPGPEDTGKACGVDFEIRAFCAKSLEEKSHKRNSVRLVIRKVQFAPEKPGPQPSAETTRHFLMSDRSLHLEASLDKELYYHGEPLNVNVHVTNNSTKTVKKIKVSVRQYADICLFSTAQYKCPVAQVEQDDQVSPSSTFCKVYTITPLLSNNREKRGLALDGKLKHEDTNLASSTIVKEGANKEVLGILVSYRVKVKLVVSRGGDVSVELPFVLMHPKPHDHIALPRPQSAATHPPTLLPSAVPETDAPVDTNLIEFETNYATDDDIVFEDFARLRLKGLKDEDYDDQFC
Sequence of 5-hydroxytryptamine 1D receptor (Q8MI13 whole entry): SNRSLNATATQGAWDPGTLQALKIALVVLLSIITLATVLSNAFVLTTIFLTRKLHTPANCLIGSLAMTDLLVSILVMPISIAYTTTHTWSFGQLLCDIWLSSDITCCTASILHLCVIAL
Sequence of 5-hydroxytryptamine receptor 1B (P28564 whole entry): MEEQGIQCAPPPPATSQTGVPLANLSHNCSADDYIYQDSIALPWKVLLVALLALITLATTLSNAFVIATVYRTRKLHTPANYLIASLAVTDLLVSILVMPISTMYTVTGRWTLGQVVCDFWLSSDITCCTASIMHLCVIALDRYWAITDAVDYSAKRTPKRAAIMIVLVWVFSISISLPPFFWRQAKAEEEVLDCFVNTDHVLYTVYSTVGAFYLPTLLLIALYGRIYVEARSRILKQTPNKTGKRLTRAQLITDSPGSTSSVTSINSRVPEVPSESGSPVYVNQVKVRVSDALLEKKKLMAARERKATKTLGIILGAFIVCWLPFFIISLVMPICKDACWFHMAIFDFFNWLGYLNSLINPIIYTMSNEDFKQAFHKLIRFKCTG

Row | Ki [2] | Ki [3] | Ki [4] | Ki [5] | Structure (SMILES) | Ki [1] | Ki (Beta-arrestin-2)
1 | > 10 µM | > 10 µM | – | – | CN(C)CCCC1(c2ccc(F)cc2)OCc2cc(C#N)ccc21 (configuration not stated) [CITALOPRAM HYDROBROMIDE] | > 10 µM | 3.31 µM
2 | – | – | – | – | CNCC[C@@H](Oc1ccc(C(F)(F)F)cc1)c1ccccc1 [Fluoxetine-R-(-)] | > 10 µM | 0.155 µM
3 | 4.47 µM | 3.24 µM | 9.12 µM | 0.794 µM | c1ccc2c(CCC3CCNCC3)c[nH]c2c1 | 3.63 µM | 3.24 µM
4 | – | – | – | – | CNCC[C@@H](Oc1ccc(C(F)(F)F)cc1)c1ccccc1 [(3R)-N-methyl-3-phenyl-3-[4-(trifluoromethyl)phenoxy]propan-1-amine] | 3.89 µM | 3.63 µM
5 | – | – | – | – | CNCC[C@@H](Oc1ccc(C(F)(F)F)cc1)c1ccccc1 [Prozac] | 4.27 µM | 0.269 µM
6 | 9.33 µM | > 10 µM | 3.16 µM | 0.407 µM | COc1ccc(OC[C@H]2CN(C)CC[C@@H]2c2ccccc2)cc1 [(3R,4S)-3-(4-Methoxy-phenoxymethyl)-1-methyl-4-phenyl-piperidine] | 3.72 µM | 1.91 µM

Row | Structure (SMILES) | Ki [2] | Ki [3] | Ki [4] | Ki [5] | Ki [1] | Ki (Beta-arrestin-2)
7 | Fc1ccc([C@@H]2CCNC[C@H]2COc2ccc3c(c2)OCO3)cc1 [PAROXETINE] | > 10 µM | 2.63 µM | > 10 µM | – | 4.9 µM | > 10 µM
